Laboratory results as given in patent US7615569B2, “Inhibitors of ion channels” (Icagen, Inc., priority 2005, dated 2009).

molecular target: Nav1.2 (Homo sapiens, UniProt Q99250); assay: not given; details: read-out: TTX IC-50; cited from earlier work

SMILES | IC50 [nM]
NC1=N[C@H](O)[C@H]2[C@H]3O[C@]4(O)O[C@@H]([C@@H](O)[C@@]2(N1)[C@@H]4O)[C@]3(O)CO [TTX, tetrodotoxin] | 10

tested on: not given; assay: not given; details: cited from earlier work

SMILES | patients respond to gabapentin treatment for neuropathic pain [%]
NCC1(CC(=O)O)CCCCC1 [gabapentin] | 30

molecular target: Nav1.6 (Homo sapiens, UniProt Q9UQD0); assay: not given; details: read-out: TTX IC-50; cited from earlier work
Sequence (Q9UQD0 whole entry, looked up): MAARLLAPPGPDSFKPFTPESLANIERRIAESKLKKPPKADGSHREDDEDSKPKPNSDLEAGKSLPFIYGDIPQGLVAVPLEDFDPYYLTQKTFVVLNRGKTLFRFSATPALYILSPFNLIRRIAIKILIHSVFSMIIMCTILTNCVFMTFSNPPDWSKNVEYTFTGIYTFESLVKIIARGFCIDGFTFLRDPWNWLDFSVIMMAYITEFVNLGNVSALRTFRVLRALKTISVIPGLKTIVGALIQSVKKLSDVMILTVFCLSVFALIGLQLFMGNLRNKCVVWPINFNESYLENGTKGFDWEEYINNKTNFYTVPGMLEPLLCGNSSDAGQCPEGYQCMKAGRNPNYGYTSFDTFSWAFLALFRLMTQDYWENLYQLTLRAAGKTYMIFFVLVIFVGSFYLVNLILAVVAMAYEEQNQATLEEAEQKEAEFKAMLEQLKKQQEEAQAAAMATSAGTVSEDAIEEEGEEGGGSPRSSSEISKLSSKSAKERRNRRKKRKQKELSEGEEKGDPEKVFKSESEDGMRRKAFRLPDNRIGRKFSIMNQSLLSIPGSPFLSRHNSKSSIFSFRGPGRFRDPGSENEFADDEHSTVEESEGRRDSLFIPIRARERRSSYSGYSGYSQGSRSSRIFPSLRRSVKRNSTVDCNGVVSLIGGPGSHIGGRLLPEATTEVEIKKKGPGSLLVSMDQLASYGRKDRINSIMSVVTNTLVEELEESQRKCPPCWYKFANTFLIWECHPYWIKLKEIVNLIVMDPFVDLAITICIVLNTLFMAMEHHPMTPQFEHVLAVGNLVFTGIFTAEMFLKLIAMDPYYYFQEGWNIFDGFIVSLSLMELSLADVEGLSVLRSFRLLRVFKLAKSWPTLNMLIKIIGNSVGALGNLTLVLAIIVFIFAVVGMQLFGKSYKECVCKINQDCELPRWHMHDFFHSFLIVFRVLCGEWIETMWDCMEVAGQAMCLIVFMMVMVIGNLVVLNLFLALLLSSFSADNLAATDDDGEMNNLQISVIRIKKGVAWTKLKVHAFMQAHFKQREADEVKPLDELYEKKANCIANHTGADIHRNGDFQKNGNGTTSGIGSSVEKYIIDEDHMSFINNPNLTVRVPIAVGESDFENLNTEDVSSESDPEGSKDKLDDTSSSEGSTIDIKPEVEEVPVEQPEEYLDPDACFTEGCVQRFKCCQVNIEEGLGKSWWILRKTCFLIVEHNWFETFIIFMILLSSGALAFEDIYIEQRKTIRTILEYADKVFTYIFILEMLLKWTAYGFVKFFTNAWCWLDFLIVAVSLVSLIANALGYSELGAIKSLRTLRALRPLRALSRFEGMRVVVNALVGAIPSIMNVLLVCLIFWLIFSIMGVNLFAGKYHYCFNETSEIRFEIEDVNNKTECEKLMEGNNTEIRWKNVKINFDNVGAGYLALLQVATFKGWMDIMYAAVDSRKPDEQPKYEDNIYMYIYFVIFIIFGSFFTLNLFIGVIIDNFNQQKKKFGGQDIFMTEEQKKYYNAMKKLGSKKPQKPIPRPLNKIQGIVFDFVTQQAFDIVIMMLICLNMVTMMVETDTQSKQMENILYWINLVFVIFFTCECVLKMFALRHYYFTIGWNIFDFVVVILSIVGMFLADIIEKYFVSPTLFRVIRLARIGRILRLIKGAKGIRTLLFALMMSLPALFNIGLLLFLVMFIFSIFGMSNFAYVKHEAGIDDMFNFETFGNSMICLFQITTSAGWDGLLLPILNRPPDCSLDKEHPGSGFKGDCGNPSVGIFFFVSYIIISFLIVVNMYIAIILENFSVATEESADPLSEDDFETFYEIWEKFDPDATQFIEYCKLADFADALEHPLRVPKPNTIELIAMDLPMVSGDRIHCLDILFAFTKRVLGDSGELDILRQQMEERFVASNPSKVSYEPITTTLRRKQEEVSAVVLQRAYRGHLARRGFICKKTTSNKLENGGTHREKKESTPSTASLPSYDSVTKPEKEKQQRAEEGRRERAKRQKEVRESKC

SMILES | IC50 [nM]
NC1=N[C@H](O)[C@H]2[C@H]3O[C@]4(O)O[C@@H]([C@@H](O)[C@@]2(N1)[C@@H]4O)[C@]3(O)CO [TTX, tetrodotoxin] | 6

molecular target: Nav1.1 (Homo sapiens, UniProt P35498); assay: not given; details: read-out: TTX IC-50; cited from earlier work

SMILES | IC50 [nM]
NC1=N[C@H](O)[C@H]2[C@H]3O[C@]4(O)O[C@@H]([C@@H](O)[C@@]2(N1)[C@@H]4O)[C@]3(O)CO [TTX, tetrodotoxin] | 10

molecular target: T1, hSCN3A (Homo sapiens, UniProt Q9NY46); assay: SCN3A inhibitory activity in HEK cells stably expressing hSCN3A (whole-cell patch clamp / radiotracer efflux HTS); format: cell-based; details: HEK cells stably transfected with hSCN3A
T1 construct: expressed in transfected cells
T1 sequence (Q9NY46 whole entry): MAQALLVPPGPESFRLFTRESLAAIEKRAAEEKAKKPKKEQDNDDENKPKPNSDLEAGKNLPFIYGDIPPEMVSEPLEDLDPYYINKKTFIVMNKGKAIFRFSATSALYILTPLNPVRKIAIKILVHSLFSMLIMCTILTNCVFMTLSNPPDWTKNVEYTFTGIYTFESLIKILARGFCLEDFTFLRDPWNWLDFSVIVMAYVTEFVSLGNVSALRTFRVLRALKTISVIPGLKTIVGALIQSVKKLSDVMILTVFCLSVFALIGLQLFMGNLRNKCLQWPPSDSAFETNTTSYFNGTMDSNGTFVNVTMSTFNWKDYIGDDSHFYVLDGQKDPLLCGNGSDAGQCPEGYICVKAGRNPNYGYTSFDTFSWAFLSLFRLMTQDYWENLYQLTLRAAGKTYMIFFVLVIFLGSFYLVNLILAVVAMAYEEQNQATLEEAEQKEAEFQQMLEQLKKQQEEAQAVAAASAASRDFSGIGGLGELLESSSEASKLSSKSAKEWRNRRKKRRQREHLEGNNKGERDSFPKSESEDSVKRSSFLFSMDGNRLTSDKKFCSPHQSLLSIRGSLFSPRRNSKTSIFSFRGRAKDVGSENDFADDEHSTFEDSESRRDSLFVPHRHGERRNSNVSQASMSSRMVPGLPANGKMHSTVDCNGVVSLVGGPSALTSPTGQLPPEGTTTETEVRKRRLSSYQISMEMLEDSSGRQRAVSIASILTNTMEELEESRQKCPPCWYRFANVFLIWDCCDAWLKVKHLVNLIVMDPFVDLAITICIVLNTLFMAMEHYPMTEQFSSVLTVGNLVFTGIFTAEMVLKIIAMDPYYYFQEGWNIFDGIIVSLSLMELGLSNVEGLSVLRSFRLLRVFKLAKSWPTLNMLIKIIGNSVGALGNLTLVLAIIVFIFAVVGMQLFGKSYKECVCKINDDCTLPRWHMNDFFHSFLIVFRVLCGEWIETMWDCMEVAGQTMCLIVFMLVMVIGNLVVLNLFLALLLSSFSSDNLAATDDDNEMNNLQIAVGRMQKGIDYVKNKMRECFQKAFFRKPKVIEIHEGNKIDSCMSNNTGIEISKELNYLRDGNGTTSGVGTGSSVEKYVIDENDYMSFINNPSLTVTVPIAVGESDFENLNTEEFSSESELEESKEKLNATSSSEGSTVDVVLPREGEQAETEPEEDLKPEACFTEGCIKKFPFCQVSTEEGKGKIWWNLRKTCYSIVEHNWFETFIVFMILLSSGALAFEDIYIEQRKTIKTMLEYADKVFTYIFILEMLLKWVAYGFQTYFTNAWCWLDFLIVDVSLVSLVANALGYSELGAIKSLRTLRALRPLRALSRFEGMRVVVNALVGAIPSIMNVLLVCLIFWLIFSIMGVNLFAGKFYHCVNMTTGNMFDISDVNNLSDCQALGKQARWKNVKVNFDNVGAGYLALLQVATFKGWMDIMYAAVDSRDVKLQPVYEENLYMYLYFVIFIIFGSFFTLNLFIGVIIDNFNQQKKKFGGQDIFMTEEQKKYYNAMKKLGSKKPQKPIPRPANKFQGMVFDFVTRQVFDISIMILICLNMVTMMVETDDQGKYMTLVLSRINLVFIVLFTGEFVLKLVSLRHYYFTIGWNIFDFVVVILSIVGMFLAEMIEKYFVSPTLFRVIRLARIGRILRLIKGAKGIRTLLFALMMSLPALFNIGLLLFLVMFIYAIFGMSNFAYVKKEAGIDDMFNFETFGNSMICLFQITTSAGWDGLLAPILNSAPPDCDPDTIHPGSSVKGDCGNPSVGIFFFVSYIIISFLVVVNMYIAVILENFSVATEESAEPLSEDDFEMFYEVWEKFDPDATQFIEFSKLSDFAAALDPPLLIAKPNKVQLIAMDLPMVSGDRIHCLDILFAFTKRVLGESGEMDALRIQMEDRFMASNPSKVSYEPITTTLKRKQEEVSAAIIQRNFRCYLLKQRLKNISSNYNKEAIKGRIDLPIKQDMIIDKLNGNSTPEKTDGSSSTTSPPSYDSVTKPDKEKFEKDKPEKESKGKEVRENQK

SMILES | IC50 [nM]
O=S(=O)(Nc1nccs1)c1ccc(-c2nc(Cc3ccc(F)cc3Cl)c[nH]2)cc1 [Compound 13, 4-[4-(2-Chloro-4-fluoro-benzyl)-1H-imidazol-2-yl]-N-thiazol-2-yl-benzenesulfonamide] | < 100
O=S(=O)(Cc1ncc(Cl)s1)c1ccc(-c2nc(CCc3cc(Cl)cc(Cl)c3)c[nH]2)cc1 [Compound 122, 5-Chloro-2-(4-{4-[2-(3,5-dichloro-phenyl)-ethyl]-1H-imidazol-2-yl}-benzenesulfonylmethyl)-thiazole] | < 100
O=S(=O)(Nc1nccs1)c1ccc(-c2nc(Cc3ccc(Oc4ccccc4)cc3)c[nH]2)cc1 [Compound 42, 4-[4-(4-Phenoxy-benzyl)-1H-imidazol-2-yl]-N-thiazol-2-yl-benzenesulfonamide] | < 100
COCn1c(Cc2ccc(Cl)c(Cl)c2)nnc1-c1ccc(S(=O)(=O)Nc2nccs2)cc1 [Compound 97, 4-[5-(3,4-Dichloro-benzyl)-4-methoxymethyl-4H-[1,2,4]triazol-3-yl]-N-thiazol-2-yl-benzenesulfonamide] | 500 to 1000
Cc1ccccc1CCc1c[nH]c(-c2ccc(S(=O)(=O)Nc3nccs3)cc2)n1 [Compound 33, N-Thiazol-2-yl-4-[4-(2-o-tolyl-ethyl)-1H-imidazol-2-yl]-benzenesulfonamide] | 500 to 1000
CC1(c2ccc(S(=O)(=O)Nc3nccs3)cc2)C(=O)NC(=O)N1Cc1ccc(Cl)c(Cl)c1 (stereo not shown) [Compound 99, 4-[3-(3,4-Dichloro-benzyl)-4-methyl-2,5-dioxo-imidazolidin-4-yl]-N-thiazol-2-yl-benzenesulfonamide] | > 1000
CC1(c2ccc(S(=O)(=O)Nc3nccs3)cc2)NC(=O)N(Cc2ccc(Cl)c(Cl)c2)C1=O (stereo not shown) [Compound 100, 4-[1-(3,4-Dichloro-benzyl)-4-methyl-2,5-dioxo-imidazolidin-4-yl]-N-thiazol-2-yl-benzenesulfonamide] | > 1000
O=S(=O)(Nc1nccs1)c1ccc(-c2nc(Cc3ccc(C(F)(F)F)cc3)c[nH]2)cc1 [Compound 34, N-Thiazol-2-yl-4-[4-(4-trifluoromethyl-benzyl)-1H-imidazol-2-yl]-benzenesulfonamide] | 100 to 500
O=S(=O)(Nc1nccs1)c1ccc(-c2nc(-c3ncc(C(F)(F)F)cc3Cl)n[nH]2)cc1F [Compound 116, 4-[5-(3-Chloro-5-trifluoromethyl-pyridin-2-yl)-2H-[1,2,4]triazol-3-yl]-2-fluoro-n-thiazol-2-yl-benzenesulfonamide] | 100 to 500
O=S(=O)(Nc1nccs1)c1ccc(-c2nnc(Cc3cccc(Cl)c3)[nH]2)cc1 [Compound 96, 4-[5-(3-Chloro-benzyl)-4H-[1,2,4]triazol-3-yl]-N-thiazol-2-yl-benzenesulfonamide] | 100 to 500
O=S(=O)(Nc1nccs1)c1ccc(-c2cc(CCCOc3ccc(Cl)cc3Cl)[nH]n2)cc1 [Compound 123, 4-{5-[3-(2,4-Dichloro-phenoxy)-propyl]-1H-pyrazol-3-yl}-N-thiazol-2-yl-benzenesulfonamide] | 100 to 500
Cc1ccc(Cc2c[nH]c(-c3ccc(S(=O)(=O)Nc4nccs4)cc3)n2)cc1 [Compound 32, 4-[4-(4-Methyl-benzyl)-1H-imidazol-2-yl]-N-thiazol-2-yl-benzenesulfonamide] | > 1000
O=S(=O)(Nc1nccs1)c1ccc(-c2nc(CCc3cc(Cl)cc(Cl)c3)c(I)[nH]2)cc1 [Compound 68, 4-{4-[2-(3,5-Dichloro-phenyl)-ethyl]-5-iodo-1H-imidazol-2-yl}-N-thiazol-2-yl-benzenesulfonamide] | < 100
O=S(=O)(Nc1nccs1)c1ccc(-c2nc(Cc3cccc(OC(F)(F)F)c3)c[nH]2)cc1 [Compound 43, N-Thiazol-2-yl-4-[4-(3-trifluoromethoxy-benzyl)-1H-imidazol-2-yl]-benzenesulfonamide] | 500 to 1000
O=S(=O)(Nc1nccs1)c1ccc(-c2nc(Cc3ccccc3C(F)(F)F)c[nH]2)cc1 [Compound 51, N-Thiazol-2-yl-4-[4-(2-trifluoromethyl-benzyl)-1H-imidazol-2-yl]-benzenesulfonamide] | 100 to 500
O=S(=O)(Nc1nccs1)c1ccc(-c2nc(C3CCC(c4ccc(Cl)cc4)CC3)c[nH]2)cc1 (stereo not shown) [Compound 12, 4-{4-[4-(4-Chloro-phenyl)-cyclohexyl]-1H-imidazol-2-yl}-N-thiazol-2-yl-benzenesulfonamide] | < 100
O=S(=O)(Nc1nccs1)c1ccc(-c2nc(CCc3cc(C(F)(F)F)ccc3C(F)(F)F)c[nH]2)cc1 [Compound 22, 4-{4-[2-(2,5-Bis-trifluoromethyl-phenyl)-ethyl]-1H-imidazol-2-yl}-N-thiazol-2-yl-benzenesulfonamide] | 100 to 500
O=S(=O)(Nc1nccs1)c1ccc(-c2ncc(Cc3cc(F)cc(F)c3)[nH]2)cc1 [Compound 7, 4-[5-(3,5-Difluoro-benzyl)-1H-imidazol-2-yl]-N-thiazol-2-yl-benzenesulfonamide] | 100 to 500
O=S(=O)(Nc1nccs1)c1ccc(-c2ncc(C(c3ccccc3)c3ccccc3)[nH]2)cc1 [Compound 6, 4-(5-Benzhydryl-1H-imidazol-2-yl)-N-thiazol-2-yl-benzenesulfonamide] | 100 to 500
O=S(=O)(Nc1nccs1)c1ccc(-c2nc(COc3c(Cl)cccc3Cl)n[nH]2)cc1F [Compound 115, 4-[5-(2,6-Dichloro-phenoxymethyl)-2H-[1,2,4]triazol-3-yl]-2-fluoro-n-thiazol-2-yl-benzenesulfonamide] | 100 to 500
O=S(=O)(Nc1nccs1)c1ccc(-c2nc3ccccc3[nH]2)cc1 [Compound 10, 4-(1H-Benzoimidazol-2-yl)-N-thiazol-2-yl-benzenesulfonamide] | > 1000
O=S(=O)(Nc1nccs1)c1ccc(-c2nc(Cc3ccc(F)c(F)c3)c[nH]2)cc1 [Compound 23, 4-[4-(3,4-Difluoro-benzyl)-1H-imidazol-2-yl]-N-thiazol-2-yl-benzenesulfonamide] | 100 to 500
O=S(=O)(Nc1nccs1)c1ccc(-c2nc(Cc3ccc4c(c3)OCO4)c[nH]2)cc1 [Compound 49, 4-(4-Benzo[1,3]dioxol-5-ylmethyl-1H-imidazol-2-yl)-N-thiazol-2-yl-benzenesulfonamide] | 500 to 1000
CS(=O)(=O)c1ccc(Cc2c[nH]c(-c3ccc(S(=O)(=O)Nc4nccs4)cc3)n2)cc1 [Compound 54, 4-[4-(4-Methanesulfonyl-benzyl)-1H-imidazol-2-yl]-N-thiazol-2-yl-benzenesulfonamide] | > 1000
O=S(=O)(NCc1nccs1)c1ccc(-c2nc(Cc3cc(F)cc(F)c3)c[nH]2)cc1 [Compound 98, 4-[4-(3,5-Difluoro-benzyl)-1H-imidazol-2-yl]-N-thiazol-2-ylmethyl-benzenesulfonamide] | > 1000
O=S(=O)(Nc1nccs1)c1ccc(-c2nc(CCc3ccc(F)cc3)c[nH]2)cc1 [Compound 15, 4-{4-[2-(4-Fluoro-phenyl)-ethyl]-1H-imidazol-2-yl}-N-thiazol-2-yl-benzenesulfonamide] | 100 to 500
Cc1cccc(Cc2c[nH]c(-c3ccc(S(=O)(=O)Nc4nccs4)cc3)n2)c1 [Compound 27, 4-[4-(3-Methyl-benzyl)-1H-imidazol-2-yl]-N-thiazol-2-yl-benzenesulfonamide] | 100 to 500

molecular target: Nav1.8 (Homo sapiens, UniProt Q9Y5Y9); assay: not given; details: read-out: TTX IC-50; cited from earlier work

SMILES | IC50 [nM]
NC1=N[C@H](O)[C@H]2[C@H]3O[C@]4(O)O[C@@H]([C@@H](O)[C@@]2(N1)[C@@H]4O)[C@]3(O)CO [TTX, tetrodotoxin] | 50000

molecular target: Nav1.9 (Homo sapiens, UniProt Q9UI33); assay: not given; details: read-out: TTX IC-50; cited from earlier work

SMILES | IC50 [nM]
NC1=N[C@H](O)[C@H]2[C@H]3O[C@]4(O)O[C@@H]([C@@H](O)[C@@]2(N1)[C@@H]4O)[C@]3(O)CO [TTX, tetrodotoxin] | 1000

molecular target: Nav1.3 (Homo sapiens, UniProt Q9NY46); assay: not given; details: read-out: TTX IC-50; cited from earlier work
Sequence (Q9NY46 whole entry, looked up): as the sequence (Q9NY46 whole entry) above

SMILES | IC50 [nM]
NC1=N[C@H](O)[C@H]2[C@H]3O[C@]4(O)O[C@@H]([C@@H](O)[C@@]2(N1)[C@@H]4O)[C@]3(O)CO [TTX, tetrodotoxin] | 15
